Results on three substances are retold here after publication PMC9569163 (Journal of molecular biology, 2020).

The target of one data set is human TfR (Homo sapiens, UniProt P02786). As to conditions: SPR, 40 nM analyte, HBS-P+ pH 7.4, 56 RUs captured human TfR. In general terms: Surface plasmon resonance follows binding to a sensor surface in real time, without labels.
The conditions of data set [1]: cited from earlier work.
For data set [2] the following is noted: cited from earlier work. The source holds these as a separate data set.
The subject of the next data set is TfR. As to conditions: cited from earlier work.

Sequence of human TfR (P02786 121-760): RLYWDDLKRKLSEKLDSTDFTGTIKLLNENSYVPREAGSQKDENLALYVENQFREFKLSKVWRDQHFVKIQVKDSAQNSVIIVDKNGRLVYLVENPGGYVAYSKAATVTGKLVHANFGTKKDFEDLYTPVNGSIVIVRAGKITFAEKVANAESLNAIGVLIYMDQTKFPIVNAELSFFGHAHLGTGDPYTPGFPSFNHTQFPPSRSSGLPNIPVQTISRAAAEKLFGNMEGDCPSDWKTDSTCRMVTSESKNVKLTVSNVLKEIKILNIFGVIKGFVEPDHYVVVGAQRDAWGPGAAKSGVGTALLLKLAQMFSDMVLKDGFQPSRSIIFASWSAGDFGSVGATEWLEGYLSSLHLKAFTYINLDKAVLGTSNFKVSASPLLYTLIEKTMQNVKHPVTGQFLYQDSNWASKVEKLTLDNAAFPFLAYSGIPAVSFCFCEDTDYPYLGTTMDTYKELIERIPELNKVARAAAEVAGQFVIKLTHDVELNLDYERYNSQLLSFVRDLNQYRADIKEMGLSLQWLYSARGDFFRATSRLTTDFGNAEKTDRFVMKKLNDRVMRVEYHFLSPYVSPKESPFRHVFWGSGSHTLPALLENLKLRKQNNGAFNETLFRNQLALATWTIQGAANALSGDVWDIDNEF

For holo-transferrin, the “interaction with captured TfR” value at human TfR is reported as “demonstrated an interaction”.

In the case of Angiopep-2, in data set [1], the serum degradation half-life is recorded as ~ 20 minutes.

As for transferrin, the plasma half-life in data set [2] was 40 h. Besides, in the data set with TfR, the “endocytosis rate t½” value was 3.5 min.
